Measured values published in ChEMBL document CHEMBL4330059, “Discovery of N1-(4-((7-(3-(4-ethylpiperazin-1-yl)propoxy)-6-methoxyquinolin-4-yl)oxy)-3,5-difluorophenyl)-N3-(2-(2,6-difluorophenyl)-4-oxothiazolidin-3-yl)urea as a multi-tyrosine kinase inhibitor for drug-sensitive and drug-resistant cancers treatment” (Eur J Med Chem, 2019).
Activity calls are given as the source filed them. The calls are words filed in the database; no cut-off is given here.

Key:
A549 = assay: Antiproliferative activity against human A549 cells after 72 hrs by MTT assay; assay type: functional, cell-based; conditions: A549, 72 h
HT-29 [1] = assay: Antiproliferative activity against human HT-29 cells after 72 hrs by MTT assay; assay type: functional, cell-based; conditions: HT-29, 72 h
MDA-MB-231 = assay: Antiproliferative activity against human MDA-MB-231 cells after 72 hrs by MTT assay; assay type: functional, cell-based; conditions: MDA-MB-231, 72 h
A549/CDDP = assay: Antiproliferative activity against human A549/CDDP cells after 72 hrs by MTT assay; assay type: functional, cell-based
MCF7 = assay: Antiproliferative activity against human MCF7 cells after 72 hrs by MTT assay; assay type: functional, cell-based; conditions: MCF7, 72 h
[2] = Antiproliferative activity against human MCF7/DX cells after 72 hrs by MTT assay; assay type: functional, cell-based
FHC = assay: Cytotoxicity against human FHC cells after 72 hrs by MTT assay; assay type: cell-based
[3] = Selectivity index, ratio of IC50 for human FHC cells to IC50 for human HT-29 cells; assay type: toxicity; conditions: FHC cells and HT-29 cells, read-out: Ratio IC50
HT-29 [4] = assay: Cytotoxicity against human HT-29 cells assessed as increase in dead cells at 10 ug/mL up to 36 hrs by yoyo-1 dye-based fluorescence assay; assay type: functional, cell-based
HT-29 [5] = assay: Induction of apoptosis in human HT-29 cells assessed as early apoptotic cells at 5 ug/mL after 72 hrs by Annexin V-FITC/propidium iodide staining-based flow cytometric analysis (reference value: 0%); assay type: functional
HT-29 [6] = assay: Induction of apoptosis in human HT-29 cells assessed as late apoptotic cells at 5 ug/mL after 72 hrs by Annexin V-FITC/propidium iodide staining-based flow cytometric analysis (reference value: 0.1%); assay type: functional
HT-29 [7] = assay: Antimigratory activity against human HT-29 cells at 3.33 ug/mL after 48 to 72 hrs by wound healing assay; assay type: functional, cell-based
HT-29 [8] = assay: Antiproliferative activity against human HT-29 cells at 10 ug/ml after 72 hrs by IncuCyte live-cell imaging assay; assay type: functional, cell-based
HT-29 [9] = assay: Antiproliferative activity against human HT-29 cells at 3.33 ug/ml after 36 to 72 hrs by phase contrast microscopy; assay type: functional, cell-based

| SMILES | IC50 (A549) [nM] | IC50 (HT-29 [1]) [nM] | IC50 (MDA-MB-231) [nM] | other results |
| --- | --- | --- | --- | --- |
| COc1cc2c(Oc3c(F)cc(NC(=O)NN4C(=O)CCSC4c4c(F)cccc4F)cc3F)ccnc2cc1OCCCN1CCc2sccc2C1 (stereo not given) | > 20000 | 1320 |  |  |
| COc1cc2c(Oc3ccc(NC(=O)NN4C(=O)CSC4c4c(F)cccc4F)c(Cl)c3)ccnc2cc1OCCCN1CCCC1 (stereo not given) | 960 | 630 |  |  |
| CCN(CC)CCCOc1cc2nccc(Oc3c(F)cc(NC(=O)NN4C(=O)CSC4c4c(F)cccc4F)cc3F)c2cc1OC (stereo not given) | 450 | 91 | 3790 | IC50 (A549/CDDP): 540 nM; IC50 (MCF7): 1600 nM; IC50 [2]: 3400 nM; IC50 (FHC): 540 nM; selectivity ratio [3]: 5.9 |
| COc1cc2c(Oc3c(F)cc(NC(=O)NN4C(=O)CSC4c4c(F)cccc4F)cc3F)ccnc2cc1OCCCN1CCCC1 (stereo not given) | 560 | 230 | 8350 |  |
| COc1cc2c(Oc3ccc(NC(=O)NN4C(=O)CSC4c4c(F)cccc4F)cc3F)ccnc2cc1OCCCN1CCCC1 (stereo not given) | 690 | 350 | 9040 |  |
| COc1cc2c(Oc3c(F)cc(NC(=O)NN4C(=O)CSC4c4c(F)cccc4F)cc3F)ccnc2cc1OCCCN1CCN(C)CC1 (stereo not given) | 510 | 150 | 4360 |  |
| COc1cc2c(Oc3c(F)cc(NC(=O)NN4C(=O)CCSC4c4c(F)cccc4F)cc3F)ccnc2cc1OCCCN1CCC(C)CC1 (stereo not given) | 1630 | 410 | 4350 |  |
| COc1cc2nccc(Oc3ccc(NC(=O)C4(C(=O)Nc5ccc(F)cc5)CC4)cc3)c2cc1OC [CABOZANTINIB] | 9520 | 11500 | 13400 | IC50 (A549/CDDP): 19600 nM; IC50 (MCF7): 8570 nM; IC50 [2]: > 50000 nM; Activity (HT-29 [4]): Active; Activity (HT-29 [5]): 78.4%; Activity (HT-29 [6]): 10.9%; Activity (HT-29 [7]): Active; IC50 (FHC): 4400 nM; Activity (HT-29 [8]): Active; Activity (HT-29 [9]): Active |
| COc1cc2c(Oc3c(F)cc(NC(=O)NN4C(=O)CSC4c4c(F)cccc4F)cc3F)ccnc2cc1OCCCN1CCC(C)CC1 (stereo not given) | 970 | 220 | 3830 |  |
| CCN1CCN(CCCCOc2cc3nccc(Oc4c(F)cc(NC(=O)NN5C(=O)CSC5c5c(F)cccc5F)cc4F)c3cc2OC)CC1 (stereo not given) | 1390 | 830 |  |  |
| COc1cc2c(Oc3ccc(NC(=O)NN4C(=O)CSC4c4c(F)cccc4F)c4ccccc34)ccnc2cc1OCCCN1CCCC1 (stereo not given) | 2360 | 1860 |  |  |
| COc1cc2c(Oc3c(F)cc(NC(=O)NN4C(=O)CSC4c4c(F)cccc4F)cc3F)ccnc2cc1OCCCN1C[C@H]2CCCC[C@H]2C1 (stereo not given in full) | 1930 | 470 |  |  |
| COc1cc2c(Oc3c(F)cc(NC(=O)NN4C(=O)CCSC4c4c(F)cccc4F)cc3F)ccnc2cc1OCCCN1C[C@H]2CCCC[C@H]2C1 (stereo not given in full) | 3610 | 790 |  |  |
| COc1cc2c(Oc3c(F)cc(NC(=O)NN4C(=O)CSC4c4c(F)cccc4F)cc3F)ccnc2cc1OCCCN1CCC(N2CCCCC2)CC1 (stereo not given) | 380 | 280 | 5380 |  |
| COc1cc2c(Oc3c(F)cc(NC(=O)NN4C(=O)CSC4c4c(F)cccc4F)cc3F)ccnc2cc1OCCN1CCC(N2CCCCC2)CC1 (stereo not given) | 2380 | 490 |  |  |
| CCN1CCN(CCOc2cc3nccc(Oc4c(F)cc(NC(=O)NN5C(=O)CSC5c5c(F)cccc5F)cc4F)c3cc2OC)CC1 (stereo not given) | 1520 | 350 | 5910 |  |
| COc1cc2c(Oc3ccc(NC(=O)NN4C(=O)CSC4c4c(F)cccc4F)cc3Cl)ccnc2cc1OCCCN1CCCC1 (stereo not given) | 880 | 480 |  |  |
| COc1cc2c(Oc3c(F)cc(NC(=S)NN4C(=O)CSC4c4c(F)cccc4F)cc3F)ccnc2cc1OCCCN1CCCC1 (stereo not given) | 690 | 410 | 8120 |  |
| COc1cc2c(Oc3c(F)cc(NC(=O)NN4C(=O)CSC4c4c(F)cccc4F)cc3F)ccnc2cc1OCCCN1CCc2sccc2C1 (stereo not given) | > 20000 | 1410 |  |  |
| COc1cc2c(Oc3c(F)cc(NC(=O)NN4C(=O)C(C)(C)SC4c4c(F)cccc4F)cc3F)ccnc2cc1OCCCN1CCCC1 (stereo not given) | 1450 | 950 |  |  |
| COc1cc2c(Oc3c(F)cc(NC(=O)NN4C(=O)CCSC4c4c(F)cccc4F)cc3F)ccnc2cc1OCCCN1CCCC1 (stereo not given) | 400 | 270 | 9650 |  |
| COc1cc2c(Oc3c(F)cc(NC(=O)NN4C(=O)C(C)SC4c4c(F)cccc4F)cc3F)ccnc2cc1OCCCN1CCCC1 (stereo not given) | 830 | 670 |  |  |
